Results taken from patent publication EP0942911B1, “BENZOPYRANOPYRROLE AND BENZOPYRANOPYRIDINE ALPHA-1 ADRENERGIC COMPOUNDS” (Abbott Laboratories, priority 1996, dated 1998).
Counter-ions that a name gives are not always drawn. Like-named read-outs stand apart in the source and are kept apart here.

Columns and labels:
[1] = biological target: T1, α-1A adrenoreceptor (rat submaxillary gland) (Rattus norvegicus, UniProt P43140); experiment: biochemical; type: binding
T1 sequence (P43140 1-466): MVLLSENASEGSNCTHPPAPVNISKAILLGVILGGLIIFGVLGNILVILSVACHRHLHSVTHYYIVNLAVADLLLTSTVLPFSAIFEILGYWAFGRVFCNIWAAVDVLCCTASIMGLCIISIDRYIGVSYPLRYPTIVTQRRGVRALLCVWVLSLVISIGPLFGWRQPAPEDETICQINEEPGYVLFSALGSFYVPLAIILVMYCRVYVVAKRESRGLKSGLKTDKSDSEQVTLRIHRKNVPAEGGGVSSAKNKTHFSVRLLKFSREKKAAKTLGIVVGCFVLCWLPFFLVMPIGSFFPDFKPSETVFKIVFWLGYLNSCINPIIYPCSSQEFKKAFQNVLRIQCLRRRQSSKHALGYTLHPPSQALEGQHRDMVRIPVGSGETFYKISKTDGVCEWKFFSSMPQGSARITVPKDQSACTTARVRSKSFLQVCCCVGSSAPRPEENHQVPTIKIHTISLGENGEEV
Method in brief: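 Membranes were prepared from rat submaxillary glands as the α-1A adrenoreceptor source. Competition binding followed Greengrass and Bremner, with bound radioligand measured by scintillation counting.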

α-1b adrenoreceptor = biological target: T2, α-1b adrenoreceptor (Mesocricetus auratus, UniProt P18841); experiment: biochemical; type: binding, hamster
T2 sequence (P18841 1-515): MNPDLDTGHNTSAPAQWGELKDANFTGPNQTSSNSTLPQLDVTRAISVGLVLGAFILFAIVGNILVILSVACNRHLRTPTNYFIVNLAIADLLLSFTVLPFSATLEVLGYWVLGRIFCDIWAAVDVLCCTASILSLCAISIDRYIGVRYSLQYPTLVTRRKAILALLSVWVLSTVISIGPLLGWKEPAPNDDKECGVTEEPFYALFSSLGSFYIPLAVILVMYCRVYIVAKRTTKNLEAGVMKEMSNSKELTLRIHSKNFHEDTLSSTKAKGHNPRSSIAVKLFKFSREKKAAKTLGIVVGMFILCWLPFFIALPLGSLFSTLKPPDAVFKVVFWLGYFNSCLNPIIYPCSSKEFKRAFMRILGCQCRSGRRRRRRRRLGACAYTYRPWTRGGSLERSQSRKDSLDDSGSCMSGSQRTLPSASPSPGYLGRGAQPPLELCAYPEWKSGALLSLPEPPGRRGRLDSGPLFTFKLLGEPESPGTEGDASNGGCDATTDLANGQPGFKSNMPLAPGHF
Method in brief: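 Stable LTK fibroblast lines carrying the bovine, hamster or rat α-1 subtype genes supply membranes, homogenized in Tris-HCl/EDTA at pH 7.4. A separate rat submaxillary gland preparation covers α-1A. Bound radioligand is quantified by liquid scintillation.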

[2] = [3H]-prazosin radioligand, rat submaxillary gland membranes, read-out: Radioligand Binding (Ki, nM) 1A (Rat)
[3] = [3H]-prazosin radioligand, cloned receptor in LTK cell membranes, read-out: Radioligand Binding (Ki, nM) 1b (Hamster)
[4] = read-out: Radioligand Binding (Ki, nM) 1A (Rat)
[5] = read-out: Radioligand Binding (Ki, nM) 1b (Hamster)

| SMILES | Ki [1, 2] [nM] | Ki (α-1b adrenoreceptor; [3]) [nM] | also measured |
| --- | --- | --- | --- |
| COc1cccc2c1[C@@H]1CN(CCCCn3c(=O)[nH]c4c(sc5ccc(OC(C)C)nc54)c3=O)C[C@H]1CO2 [Example 51, 3-[4-((3aS,9bR)-trans-9-Methoxy-1,2,3,3a,4,9b-hexahydro-[1]-benzopyrano[3,4-c]pyrrol-2-yl)butyl]-8-isopropoxy-pyrido[2',3':4,5]thieno[3,2-d]pyrimidine-2,4(1H,3H)-dione hydrochloride] | 1.19 | 0.868 | – |
| COc1cnc2sc3c(=O)n(CCCCN4C[C@@H]5COc6cccc(OC)c6[C@@H]5C4)c(=O)[nH]c3c2n1 [Example 31, 3-[4-((3aR,9bR)-cis-9-Methoxy-1,2,3,3a,4,9b-hexahydro-[1]-benzopyrano[3,4-c]pyrrol-2-yl)butyl]-8-methoxy-pyrazino[2',3':4,5]thieno[3,2-d]pyrimidine-2,4(1H,3H)-dione hydrochloride] | 0.224 | 4.79 | – |
| COc1cccc2c1[C@@H]1CN(CCCCn3c(=O)[nH]c4c(sc5ccnc(Cl)c54)c3=O)C[C@@H]1CO2 [Example 48, 3-[4-((3aR,9bR)-cis-9-Methoxy-1,2,3,3a,4,9b-hexahydro-[1]-benzopyrano[3,4-c]pyrrol-2-yl)butyl]-9-chloro-pyrido[3',4';4,5]thieno[3,2-d]pyrimidine-2,4(1H,3H)-dione hydrochloride] | 0.475 | 5.75 | – |
| COc1cccc2c1[C@@H]1CN(CCCCn3c(=O)[nH]c4c(sc5nc(C)ccc54)c3=O)C[C@@H]1CO2 [Example 35, 3-[4-((3aR,9bR)-cis-9-Methoxy-1,2,3,3a,4,9b-hexahydro-[1]-benzopyrano[3,4-c]pyrrol-2-yl)butyl]-7-methyl-pyrido[3',2':4,5]thieno[3,2-d]pyrimidine-2,4(1H,3H)-dione hydrochloride] | 0.312 | 5.12 | – |
| COc1cccc2c1OC[C@H]1CN(CCn3c(=O)[nH]c4c(sc5ccccc54)c3=O)C[C@@H]21.Cl (racemic) [Example 67, 3-[2-((±)-cis-6-Methoxy-1,2,3,3a,4,9b-hexahydro-[1]-benzopyrano[3,4-c]pyrrol-2-yl)ethyl]-[1]benzthieno[3,2-d]pyrimidine-2,4(1H,3H)-dione hydrochloride] | – | – | Ki [1, 4]: 116 nM; Ki (α-1b adrenoreceptor; [5]): 248 nM |
| COc1cccc2c1OC[C@H]1CN(CCCn3c(=O)[nH]c4c(sc5ccccc54)c3=O)C[C@@H]21.Cl (racemic) [Example 68, 3-[3-((±)-cis-6-Methoxy-1,2,3,3a,4,9b-hexahydro-[1]-benzopyrano[3,4-c]pyrrol-2-yl)propyl]-[1]benzthieno[3,2-d]pyrimidine-2,4(1H,3H)-dione hydrochloride] | – | – | Ki [1, 4]: 40.6 nM; Ki (α-1b adrenoreceptor; [5]): 23.6 nM |
| COc1cccc2c1[C@H]1CN(CCCCn3c(=O)[nH]c4c(sc5nccnc54)c3=O)C[C@@H]1CO2.Cl.Cl (racemic) [Example 74, 3-[4-((±)-trans-9-Methoxy-1,2,3,3a,4,9b-hexahydro-[1]-benzopyrano[3,4-c]pyrrol-2-yl)butyl]-pyrazino[2',3':4,5]thieno[3,2-d]pyrimidine-2,4(1H,3H)-dione dihydrochloride] | – | – | Ki [1, 4]: 3.29 nM; Ki (α-1b adrenoreceptor; [5]): 14.3 nM |
| COc1cccc2c1[C@@H]1CN(CCCCn3c(=O)[nH]c4c(sc5c(Cl)nccc54)c3=O)C[C@@H]1CO2 [Example 53, 3-[4-((3aR,9bR)-cis-9-Methoxy-1,2,3,3a,4,9b-hexahydro-[1]-benzopyrano[3,4-c]pyrrol-2-yl)butyl]-6-chloro-pyrido[4',3':4,5]thieno[3,2-d]pyrimidine-2,4(1H,3H)-dione] | 0.872 | 9.42 | – |
| COc1cc2[nH]c(=O)n(CCCCN3C[C@@H]4COc5ccccc5[C@@H]4C3)c(=O)c2cc1OC (racemic) [Example 81, 3-[4-((±1-cis-1,2,3,3a,4,9b-hexahydro-[1]-benzopyrano[3,4-c]pyrrol-2-yl)butyl]-6,7-dimethoxy-quinazoline-2,4(1H,3H)-dione hydrochloride] | 0.045 | 0.192 | – |
| COc1cccc2c1[C@@H]1CCN(CCCCn3c(=O)[nH]c4c(sc5cccnc54)c3=O)C[C@H]1CO2 [Example 95, 3-[4-((4aS,10bR)-trans-10-Methoxy-1,3,4,4a,5,10b-hexahydro-2H-[1]-benzopyrano[3,4-c]pyrido-3-yl)butyl]-pyrido[2',3':4,5]thieno[3,2-d]pyrimidine-2.4(1H,3H)-dione dihydrochloride] | 8.83 | 21.6 | – |
| O=c1[nH]c2c(sc3cccnc32)c(=O)n1CCCCN1C[C@@H]2COc3ccccc3[C@@H]2C1 (racemic) [Example 70, 3-[4-((±)-cis-1,2,3,3a,4,9b-hexahydro-[1]-benzopyrano[3,4-c]pyrrol-2-yl)butyl]-pyrido[2',3':4,5]thieno[3,2-d]pyrimidine-2,4(1H,3H)-dione dihydrochloride] | – | – | Ki [1, 4]: 0.17 nM; Ki (α-1b adrenoreceptor; [5]): 0.724 nM |
| COc1cccc2c1[C@H]1CN(CCCCn3c(=O)[nH]c4c(sc5cccnc54)c3=O)C[C@H]1CO2 [Example 2, 3-[4-((3aS,9bS)-cis-9-Methoxy-1,2,3,3a,4,9b-hexahydro-[1]-benzopyrano[3,4-c]pyrrol-2-yl)butyl]-pyrido[2',3':4,5]thieno[3,2-d]pyrimidine-2,4(1H,3H)-dione hydrochloride] | 0.95 | 9.23 | – |
| COc1cccc2c1[C@@H]1CN(CCn3c(=O)[nH]c4c(sc5ccccc54)c3=O)C[C@@H]1CO2.Cl (racemic) [Example 65, 3-[2-((±)-cis-9-Methoxy-1,2,3,3a,4,9b-hexahydro-[1]-benzopyrano[3,4-c]pyrrol-2-yl)ethyl]-[1]benzthieno[3,2-d]pyrimidine-2,4(1H,3H)-dione hydrochloride] | – | – | Ki [1, 4]: 15 nM; Ki (α-1b adrenoreceptor; [5]): 20.7 nM |
| COc1cccc2c1[C@@H]1CN(CCCCn3c(=O)[nH]c4c(sc5ncc(-c6ccccc6)nc54)c3=O)C[C@H]1CO2 [Example 50, 3-[4-((3aS,9bR)-trans-9-Methoxy-1,2,3,3a,4,9b-hexahydro-[1]-benzopyrano[3,4-c]pyrrol-2-yl)butyl]-8-phenyl-pyrazino[2',3':4,5]thieno[3,2-d]pyrimidine-2,4(1H,3H)-dione hydrochloride] | 1.93 | 20.8 | – |
| COc1cccc2c1[C@@H]1CN(CCCCn3c(=O)[nH]c4c(sc5nc(-c6ccccc6)cnc54)c3=O)C[C@@H]1CO2 [Example 40, 3-[4-((3aR,9bR)-cis-9-Methoxy-1,2,3,3a,4,9b-hexahydro-[1]-benzopyrano[3,4-c]pyrrol-2-yl)butyl]-7-phenyl-pyrazino[2',3':4,5]thieno[3,2-d]pyrimidine-2,4(1H,3H)-dione hydrochloride] | 22.8 | 33.8 | – |
| COc1cccc2c1[C@@H]1CN(CCCCn3c(=O)[nH]c4c(sc5cccnc54)c3=O)C[C@H]1CO2 [Example 3, 3-[4-((3aS,9bR)-trans-9-Methoxy-1,2,3,3a,4,9b-hexahydro-[1]-benzopyrano[3,4-c]pyrrol-2-yl)butyl]-pyrido[2',3':4,5]thieno[3,2-d]pyrimidine-2,4(1H,3H)-dione hydrochloride] | 0.026 | 0.286 | – |
| COc1cccc2c1[C@@H]1CN(CCCCn3c(=O)[nH]c4c(sc5ccnc(OC)c54)c3=O)C[C@H]1CO2 [Example 49, 3-[4-((3aS,9bR)-trans-9-Methoxy-1,2,3,3a,4,9b-hexahydro-[1]-benzopyrano[3,4-c]pyrrol-2-yl)butyl]-9-methoxy-pyrido[3',4':4,5]thieno[3,2-d]pyrimidine-2,4(1H,3H)-dione fumarate] | 0.037 | 0.129 | – |
| COc1cccc2c1[C@@H]1CN(CCCCn3c(=O)[nH]c4c(sc5cnccc54)c3=O)C[C@@H]1CO2 [Example 29, 3-[4-((3aR,9bR)-cis-9-Methoxy-1,2,3,3a,4,9b-hexahydro-[1]-benzopyrano[3,4-c]pyrrol-2-yl)butyl]-pyrido[4',3':4,5]thieno[3,2-d]pyrimidine-2,4(1H,3H)-dione dihydrochloride] | 0.252 | 3.69 | – |
| COc1cc2nc(N3CCN(C(=O)C4COc5ccccc5O4)CC3)nc(N)c2cc1OC (centres unmarked) [Doxazosin, doxazosin, reference compound] | – | – | Ki [1]: 0.423 nM; Ki (α-1b adrenoreceptor): 0.793 nM |
